Experimental data from US20230002408A1, “HETEROARYLDIHYDROPYRIMIDINE DERIVATIVES AND METHODS OF TREATING HEPATITIS B INFECTIONS” (JANSSEN PHARMACEUTICA NV, priority 2019, published 2023).
Where two headings read alike, the source gives them in different places.

Experiments:
Format in all cases: cell-based
HepG2.2.15 cells = experiment: Cytotoxicity determination in HepG2.2.15 cells (CCK-8 cell viability); details: 6 days treatment, CCK-8, highest concentration 100 uM
Experimental: (§1) HepG2.2.15 (the HepG2.2.15 cell line can be produced by transfection of the HepG2 cell line as described in Sells, Chen, and Acs 1987 (Proc. Natl. Acad. Sci. USA 84: 1005-1009), and the HepG2 cell line is available from ATCC® under number HB-8065™).
(§2) HepG2.2.15 cells were plated into 96-well plate in 2% FBS culture medium at the density of 40,000 cells/well and 5,000 cells/well for HBV inhibitory activity and cytotoxicity determination, respectively. After incubation at 37° C., 5% CO2 overnight, cells were treated with medium containing compounds for 6 days with medium and compounds refreshed after 3 days of treatment. Each compound was tested in a 1:3 serial dilutions at 8 different concentrations in triplicate. The highest concentration of the compounds was 10 uM or 1 uM for anti-HBV activity assay and 100 uM for cytotoxicity determination. Cell viability was determined by CCK-8 assay. After 6 days of compounds treatment, 20 μl CCK-8 reagents were added to each well of cytotoxicity assay plates. Cell plates were incubated at 37° C., 5% CO2 for 2.5 h. The absorbance at 450 nm wavelength and the absorbance at 630 nm wavelength as reference was measured.
(§3) EC50 and CC50 values are calculated by the GRAPHPAD PRISM software.

HBV = experiment: Anti-viral assay in HepG2.2.15 cells: HBV DNA in culture medium by qPCR; details: HepG2.2.15 cells, 6 days treatment, HBV DNA in culture medium by real-time PCR, read-out: EC50
Experimental: as §1, §2
The change of HBV DNA level induced by the compounds was assessed by quantitative real-time polymerase chain reaction (qPCR). Briefly, the HBV DNA in the culture medium was extracted using QlAamp 96 DNA Blood Kit according to the manual and then quantified by real-time PCR assay using the primers and probe in the table 1 below.
as §3

[1] = Cytotoxicity determination in HepG2.2.15 cells (CCK-8 cell viability); details: human, 6 days treatment, CCK-8, highest concentration 100 uM
Experimental: as §1, §2, §3

[2] = Hepatitis B virus, HepG2.2.15, 144 h

| SMILES | CC50 (HepG2.2.15 cells) [µM] | EC50 (HBV) [µM] | CC50 at 6 days [1] [µM] | EC50 (HBV; [2]) [µM] |
| --- | --- | --- | --- | --- |
| CCOC(=O)C1=C(CN2CCO[C@H]3CN(CC(C)(C)C(=O)O)C(=O)[C@H]32)NC(c2nccs2)=N[C@H]1c1ccc(F)cc1Cl (relative stereo) [Compound I-20A, 3-((4aS*,7aS*)-4-4(R*)-6-(2-chloro-4-fluorophenyl)-5-(ethoxycarbonyl)-2-(thiazol-2-yl)-3,6-dihydropyrimidin-4-yl)methyl)-5-oxohexahydropyrrolo[3,4-b][1,4]oxazin-6(2H)-yl)-2,2-dimethylpropanoic acid] | 55 | 0.001 |  |  |
| CCOC(=O)C1=C(CN2CCO[C@H]3CN(CC(C)(C)C(=O)O)C[C@H]32)NC(c2nccs2)=N[C@H]1c1ccc(F)cc1Cl (relative stereo) [Compound I-1A, 3-((4aR*,7aS*)-4-4(R*)-6-(2-chloro-4-fluorophenyl)-5-(ethoxycarbonyl)-2-(thiazol-2-yl)-3,6-dihydropyrimidin-4-yl)methyl)hexahydropyrrolo[3,4-b][1,4]oxazin-6(2H)-yl)-2,2-dimethylpropanoic acid] | 59.8 | 0.016 |  |  |
| COC(=O)C1=C(CN2CCO[C@H]3CN(CC(C)(C)C(=O)O)C(=O)[C@H]32)NC(c2nccs2)=N[C@H]1c1cccc(F)c1Cl (single isomer, unassigned) [Compound I-24A, 3-((4aS*,7aS*)-4-4(R*)-6-(2-chloro-3-fluorophenyl)-5-(methoxycarbonyl)-2-(thiazol-2-yl)-3,6-dihydropyrimidin-4-yl)methyl)-5-oxohexahydropyrrolo[3,4-b][1,4]oxazin-6(2H)-yl)-2,2-dimethylpropanoic acid] | > 100 | 0.014 |  |  |
| CCOC(=O)C1=C(CN2CCO[C@@H]3CN(S(=O)(=O)C4CC(C)(C(=O)O)C4)C[C@@H]32)NC(c2nccs2)=N[C@H]1c1cccc(F)c1C (relative stereo) [Compound I-9F, (4aS*,7aR*)—(S)-3-((4-((5-(Ethoxycarbonyl)-6-(3-fluoro-2-methylphenyl)-2-(thiazol-2-yl)-3,6-dihydropyrimidin-4-yl)methyphexahydropyrrolo[3,4-b][1,4]oxazin-6(2H)-yl)sulfonyl)-1-methylcyclobutanecarboxylic acid] |  |  | 82.6 | 0.11 |
| COC(=O)C1=C(CN2CCO[C@H]3CN(C(=O)OC(C)(C)C)C[C@H]32)NC(c2ncc(F)cc2F)=N[C@H]1c1ccc(F)cc1Cl (single isomer, unassigned) [Reference 1E, tert-butyl (4aR*,7aS*)-4-4(R*)-6-(2-chloro-4-fluorophenyl)-2-(3,5-difluoropyridin-2-yl)-5-(methoxycarbonyl)-3,6-dihydropyrimidin-4-yl)methyl)hexahydropyrrolo[3,4-b][1,4]oxazine-6(2H)-carboxylate, reference compound] |  |  | 11.7 | > 1 |
